Assay results taken from patent US12268690B2, “Treatments for mutations in acute myeloid leukemia” (OREGON HEALTH & SCIENCE UNIVERSITY, priority 2018, dated 2025).

Tested on: freshly isolated mononuclear cells from AML samples
Experiment: Ex vivo functional drug screen (MTS viability, AUC) on primary AML samples, compared by mutation or clinical group
Assay type: cell-based, human
Conditions: for drug sensitivity of mutant cases: BCOR mutation alone
From the text: This panel contained graded concentrations of a drugs with activity against two-thirds of the tyrosine kinome as well as other non-tyrosine kinase pathways, including MAPKs, PI3K/AKT/mTOR, AMPK, ATM, Aurora kinases, CAMKs, CDKs, GSK3a/b, IκK, PKA, PKC, PLK1, and RAF. In addition, the library contained small molecule inhibitors with activity against the BCL2 family, BRD4, Hedgehog, HSP90, NOTCH/gamma-secretase, proteasome, survivin, STAT3, and WNT/beta-catenin. Drug sensitivity patterns were analyzed with respect to clinical and genetic features of tumors. We compared the average area-under-the curve (AUC) values for each drug between the de novo and transformed samples via a series of single factor ANOVAs. […] In addition, we analyzed the concordance of drug sensitivity patterns with respect to predicted target gene, gene family, or pathway for each drug. […] To create a global view of overall sensitivity or resistance of each case, we generated a heatmap of binary sensitive/resistant calls for each sample to each drug.
Correlation of drug sensitivity with mutational events was performed by assessing the range of sensitivity of cases with mutation of an individual gene (as well as co-occurring mutational events) versus cases with wild type sequence for that same gene. […] The difference in average drug sensitivity of mutant versus wild type cases for each drug/mutation pair was plotted on the horizontal axis of a volcano plot with a test for statistical significance of the comparison plotted on the vertical axis (corrected for multiple comparison false discovery rate^42; FIG. 4). […] To aid in discovery of potential mutational biomarkers of drug sensitivity, we plotted volcano plots that were specific to each individual drug (versus all possible mutational events) and for each individual gene (versus all possible drugs tested).
Ex vivo drug screens were performed on freshly isolated mononuclear cells from AML samples as previously described^41.
Ex vivo functional drug screens were performed on freshly isolated mononuclear cells from AML samples. […] Drug plates were created using inhibitors purchased from LC Laboratories and Selleck Chemicals and master stocks were reconstituted in DMSO and stored at −80° C. […] DMSO control wells and positive control wells containing a drug combination of Flavopiridol, Staurosporine and Velcade were placed on each plate, with the final concentration of DMSO ≤0.1% in all wells. Daughter plates were created using a V&P Scientific 384-well pin tool head operated by the Caliper Sciclone ALH 3000 and equipped with 0.457 mm diameter, 30 nanoliter, slotted stainless steel pins (cat num: FP1NS30). Daughter and destination plates were sealed with pealable thermal seals using a PlateLoc thermal sealer. Destination plates were stored at −20° C. for no more than three months and thawed immediately before use. Primary mononuclear cells were plated across single-agent inhibitor panels within 24 h of collection. […] After 3 d of culture at 37° C. in 5% CO2, MTS reagent (CellTiter96 AQueous One; Promega) was added, optical density was measured at 490 nm, and raw absorbance values were adjusted to a reference blank value and then used to determine cell viability (normalized to untreated control wells).
A given sample was run on one or more panels and within each panel, the majority of drugs were run without within-panel replicates. […] An additional set of ‘curve-free’ AUCs was computed for sample-inhibitor pairs run on multiple panels.
Based on the methodology used in our prior drug combination study^36, a probit regression was fit to all possible run groups using the model: (normalized_viability/100)˜1+log 10(concentration) Where for all groups there were N=7 dose-response measurements. The summary measures of curve fit were inspected and cutoffs were devised removing all runs with an AIC >12 and deviance >2.

[1] = BCOR mutation alone or co-mutation of BCOR with DNMT3A or SRSF2

Structure (SMILES): N#CCNC(=O)c1ccc(-c2ccnc(Nc3ccc(N4CCOCC4)cc3)n2)cc1 [cyt387]
- sensitivity to JAK kinase inhibitors, mutant versus wild type (average AUC difference, one-way ANOVA) [1]: no difference in sensitivity
- drug sensitivity mutant vs wild type (average difference in AUC; top left quadrant of volcano plot) (FLT3_ITD): cyt387
- drug sensitivity mutant vs wild type (average difference in AUC; top left quadrant of volcano plot) (NPM1:FLT3_ITD): cyt387
- sensitivity to JAK kinase inhibitors, mutant versus wild type (average AUC difference, one-way ANOVA) (co-mutation of BCOR with RUNX1): increased sensitivity

Structure (SMILES): CCS(=O)(=O)O.COC(=O)c1ccc2c(c1)NC(=O)/C2=C(\Nc1ccc(N(C)C(=O)CN2CCN(C)CC2)cc1)c1ccccc1 [Vargetef]
- drug sensitivity mutant vs wild type (average difference in AUC; top left quadrant of volcano plot) (FLT3_ITD): vargetef
- drug sensitivity mutant vs wild type (average difference in AUC; top left quadrant of volcano plot) (FLT3_ITD:DNMT3A): vargetef
- drug sensitivity mutant vs wild type (average difference in AUC; top left quadrant of volcano plot) (FLT3_ITD:FLT3): vargetef
- drug sensitivity mutant vs wild type (average difference in AUC; top left quadrant of volcano plot) (FLT3_ITD:TET2): vargetef
- drug sensitivity mutant vs wild type (average difference in AUC; top left quadrant of volcano plot) (FLT3_ITD:TET2:DNMT3A): Vargetef
- drug sensitivity mutant vs wild type (average difference in AUC; top left quadrant of volcano plot) (FLT3_ITD_IHD2): vargetef
- drug sensitivity mutant vs wild type (average difference in AUC; top left quadrant of volcano plot) (IDH2): Vargetef
- drug sensitivity mutant vs wild type (average difference in AUC; top left quadrant of volcano plot) (NPM1): Vagetef
- drug sensitivity mutant vs wild type (average difference in AUC; top left quadrant of volcano plot) (NPM1:FLT3_ITD): vargetef
- drug sensitivity mutant vs wild type (average difference in AUC; top left quadrant of volcano plot) (NPM1:FLT3_ITD:DNMT3A): vargetef
- drug sensitivity mutant vs wild type (average difference in AUC; top left quadrant of volcano plot) (NPM1:FLT3_ITD:TET2): vargetef
- drug sensitivity mutant vs wild type (average difference in AUC; top left quadrant of volcano plot) (NPM1:IDH2): Vargetef
- drug sensitivity mutant vs wild type (average difference in AUC; top left quadrant of volcano plot) (NPM1:SRSF2): Vargetef
- drug sensitivity mutant vs wild type (average difference in AUC; top left quadrant of volcano plot) (NPM1:TET2: DNMT3A): Vargetef

Structure (SMILES): Nc1cccc2c1CN(C1CCC(=O)NC1=O)C2=O (stereo not shown) [Lenalidomide]
- drug sensitivity mutant vs wild type (average difference in AUC; top left quadrant of volcano plot) (NPM1): Lenalidomide
- drug sensitivity mutant vs wild type (average difference in AUC; top left quadrant of volcano plot) (NPM1:SRSF2): lenalidomide

Structure (SMILES): NC(=O)c1cnc(N[C@@H]2CCCC[C@@H]2N)nc1Nc1cccc(-n2nccn2)c1 [PRT062607]
- drug sensitivity mutant vs wild type (average difference in AUC; top left quadrant of volcano plot) (NPM1:DNMT3A): PRT062607

Structure (SMILES): Cn1cc(-c2ccc3nnc(C(F)(F)c4ccc5ncccc5c4)n3n2)cn1 [JNJ-38877605]
- drug sensitivity mutant vs wild type (average difference in AUC; top left quadrant of volcano plot) (BCOR:RUNX1): JNJ-38877605

Structure (SMILES): Cc1cc(Nc2cc(N3CCN(C)CC3)nc(Sc3ccc(NC(=O)C4CC4)cc3)n2)[nH]n1 [Tozasertib]
- drug sensitivity mutant vs wild type (average difference in AUC; top left quadrant of volcano plot) (FLT3_ITD): Tozasertib
- drug sensitivity mutant vs wild type (average difference in AUC; top left quadrant of volcano plot) (FLT3_ITD:DNMT3A): tozasertib
- drug sensitivity mutant vs wild type (average difference in AUC; top left quadrant of volcano plot) (FLT3_ITD_IHD2): tozasertib
- drug sensitivity mutant vs wild type (average difference in AUC; top left quadrant of volcano plot) (IDH2): Tozasertib
- drug sensitivity mutant vs wild type (average difference in AUC; top left quadrant of volcano plot) (NPM1:FLT3_ITD:DNMT3A): tozasertib
- drug sensitivity mutant vs wild type (average difference in AUC; top left quadrant of volcano plot) (NPM1:SRSF2): Tozasertib

Structure (SMILES): Cc1cc(Nc2nc(N[C@@H](C)c3ncc(F)cn3)ncc2Cl)n[nH]1 [AZD1480]
- drug sensitivity mutant vs wild type (average difference in AUC; top left quadrant of volcano plot) (NPM1:SRSF2:IDH2): AZD1480

Structure (SMILES): COc1cc2c(Oc3ccc4[nH]c(C)cc4c3F)ncnc2cc1OCCCN1CCCC1 [Cediranib]
- drug sensitivity mutant vs wild type (average difference in AUC; top left quadrant of volcano plot) (FLT3_ITD:RUNX1): cediranib
- drug sensitivity mutant vs wild type (average difference in AUC; top left quadrant of volcano plot) (RUNX1): Cediranib
- drug sensitivity mutant vs wild type (average difference in AUC; top left quadrant of volcano plot) (U2AF1): Cediranib (AZD2171)
- correlation of mutation with drug sensitivity (mutation of RUNX1): correlated with sensitivity

Structure (SMILES): C[C@@H](Oc1cc(-c2cnn(C3CCNCC3)c2)cnc1N)c1c(Cl)ccc(F)c1Cl [Crizotinib]
- drug sensitivity mutant vs wild type (average difference in AUC; top left quadrant of volcano plot) (BCOR): Crizotinib
- drug sensitivity of mutant cases: did show sensitivity
- drug sensitivity mutant vs wild type (average difference in AUC; top left quadrant of volcano plot) (FLT3_ITD): crizotinib
- drug sensitivity mutant vs wild type (average difference in AUC; top left quadrant of volcano plot) (FLT3_ITD:SRSF2): crizotinib
- drug sensitivity mutant vs wild type (average difference in AUC; top left quadrant of volcano plot) (IDH2): Crizotinib
- drug sensitivity mutant vs wild type (average difference in AUC; top left quadrant of volcano plot) (NPM1:CEBPA): Crizotinib
- drug sensitivity mutant vs wild type (average difference in AUC; top left quadrant of volcano plot) (NPM1:FLT3_ITD): crizotinib
- drug sensitivity mutant vs wild type (average difference in AUC; top left quadrant of volcano plot) (SMC1A): crizotinib
- drug sensitivity mutant vs wild type (average difference in AUC; top left quadrant of volcano plot) (SRSF2:IDH2): Crizotinib

Structure (SMILES): C[C@@H]1CCN(C(=O)CC#N)C[C@@H]1N(C)c1ncnc2[nH]ccc12 [Tofacitinib]
- sensitivity to JAK kinase inhibitors, mutant versus wild type (average AUC difference, one-way ANOVA) [1]: no difference in sensitivity
- drug sensitivity mutant vs wild type (average difference in AUC; top left quadrant of volcano plot) (ZRSR2): Tofacitinib
- sensitivity to JAK kinase inhibitors, mutant versus wild type (average AUC difference, one-way ANOVA) (co-mutation of BCOR with RUNX1): increased sensitivity

Structure (SMILES): CC(C)n1nc(-c2ccc3oc(N)nc3c2)c2c(N)ncnc21 [INK-128]
- drug sensitivity mutant vs wild type (average difference in AUC; top left quadrant of volcano plot) (FLT3_ITD): INK-128
- drug sensitivity mutant vs wild type (average difference in AUC; top left quadrant of volcano plot) (NPM1:FLT3_ITD): ink-128

Structure (SMILES): Cc1ccc(NC(=O)c2ccc(CN3CCN(C)CC3)cc2)cc1Nc1nc(-c2cccnc2)cs1 [Masitinib]
- drug sensitivity mutant vs wild type (average difference in AUC; top left quadrant of volcano plot) (FLT3_ITD:TET2): masitinb
- drug sensitivity mutant vs wild type (average difference in AUC; top left quadrant of volcano plot) (FLT3_ITD_IHD2): masitinib
- drug sensitivity mutant vs wild type (average difference in AUC; top left quadrant of volcano plot) (IDH2): Masitinib
- drug sensitivity mutant vs wild type (average difference in AUC; top left quadrant of volcano plot) (NPM1:SRSF2): Masitinb
- drug sensitivity mutant vs wild type (average difference in AUC; top left quadrant of volcano plot) (SMC1A): Masitinib

Structure (SMILES): CNC(=O)c1c(F)cccc1Nc1nc(Nc2cc3c(cc2OC)CCN3C(=O)CN(C)C)nc2[nH]ccc12 [GSK-1838705A]
- drug sensitivity mutant vs wild type (average difference in AUC; top left quadrant of volcano plot) (IDH2): GSK-1838705A
- drug sensitivity mutant vs wild type (average difference in AUC; top left quadrant of volcano plot) (NPM1:IDH2): GSK-1838705A
- drug sensitivity mutant vs wild type (average difference in AUC; top left quadrant of volcano plot) (NPM1:SRSF2): GSK-183705A
- drug sensitivity mutant vs wild type (average difference in AUC; top left quadrant of volcano plot) (SMC1A): GSK-1838705A
- drug sensitivity mutant vs wild type (average difference in AUC; top left quadrant of volcano plot) (SRSF2:IDH2): GSK-1838705A

Structure (SMILES): O=c1ncn2nc(Sc3ccc(F)cc3F)ccc2c1-c1c(Cl)cccc1Cl [vx-745]
- drug sensitivity mutant vs wild type (average difference in AUC; top left quadrant of volcano plot) (FLT3_ITD): vx-745
- drug sensitivity mutant vs wild type (average difference in AUC; top left quadrant of volcano plot) (FLT3_ITD:ASXL1): vx-745
- drug sensitivity mutant vs wild type (average difference in AUC; top left quadrant of volcano plot) (NPM1:IDH2): vx-
- drug sensitivity mutant vs wild type (average difference in AUC; top left quadrant of volcano plot) (NPM1:SRSF2): vx-745

Structure (SMILES): O=c1[nH]c(-c2ccc(C(F)(F)F)cc2)nc2c1CSCC2 [XAV-939, 3,5,7,8-Tetrahydro-2-[4-(trifluoromethyl)phenyl]-4H-thiopyrano[4,3-d]pyrimidin-4-one]
- drug sensitivity mutant vs wild type (average difference in AUC; top left quadrant of volcano plot) (BCOR): XAV-939
- drug sensitivity of mutant cases: did show sensitivity
- drug sensitivity mutant vs wild type (average difference in AUC; top left quadrant of volcano plot) (BCOR:ASXL1): XAV-939
- drug sensitivity mutant vs wild type (average difference in AUC; top left quadrant of volcano plot) (BCOR:DNMT3A): XAV-939
- drug sensitivity mutant vs wild type (average difference in AUC; top left quadrant of volcano plot) (BCOR:SRSF2): XAV-939

Structure (SMILES): CC(C)(C)c1ccc(S(=O)(=O)/C=C/C#N)cc1 [Bay 11-7085]
- drug sensitivity mutant vs wild type (average difference in AUC; top left quadrant of volcano plot) (SMC1A): Bay 11-
